Assay results published in the kinase profiling compilation of Christmann-Franck et al. (2016).
Where “and” joins values, the source holds several entries; their conditions need not be identical. Equal values may be shown once.

Key:
Test in all cases: Caliper, Mobility shift assay off-chip
ALK (human) = ALK (human) (UniProt Q9UM73)
ALK EML4 (human) = ALK EML4 (human) (UniProt Q9HC35+Q9UM73)
CAMK1 (human) = CAMK1 (human) (UniProt Q14012)
CAMK4 (human) = CAMK4 (human) (UniProt Q16566)
CDC42BPA (human) = CDC42BPA (human) (UniProt Q5VT25)
CLK2 (human) = CLK2 (human) (UniProt P49760)
CLK3 (human) = CLK3 (human) (UniProt P49761)
CSNK1D (human) = CSNK1D (human) (UniProt P48730)
DDR1 (human) = DDR1 (human) (UniProt Q08345)
EEF2K (human) = EEF2K (human) (UniProt O00418)
EPHA4 (human) = EPHA4 (human) (UniProt P54764)
FGFR3 (human) = FGFR3 (human) (UniProt P22607)
MAPK7 (human) = MAPK7 (human) (UniProt Q13164)
MAPK9 (human) = MAPK9 (human) (UniProt P45984)
MELK (human) = MELK (human) (UniProt Q14680)
MST1R (human) = MST1R (human) (UniProt Q04912)
MUSK (human) = MUSK (human) (UniProt O15146)
MYLK2 (human) = MYLK2 (human) (UniProt Q9H1R3)
NEK7 (human) = NEK7 (human) (UniProt Q8TDX7)
NUAK1 (human) = NUAK1 (human) (UniProt O60285)
NUAK2 (human) = NUAK2 (human) (UniProt Q9H093)
PAK4 (human) = PAK4 (human) (UniProt O96013)
PASK (human) = PASK (human) (UniProt Q96RG2)
PDK2 (human) = PDK2 (human) (UniProt Q15119)
PIM1 (human) = PIM1 (human) (UniProt P11309)
PIM2 (human) = PIM2 (human) (UniProt Q9P1W9)
PRKAA1 (human) = PRKAA1 (human) (UniProt Q13131)
PRKAA2 (human) = PRKAA2 (human) (UniProt P54646)
PRKACA (human) = PRKACA (human) (UniProt P17612)
RPS6KA5 KD1 KD2 (human) = RPS6KA5 KD1 KD2 (human) (UniProt O75582)
RPS6KB2 (human) = RPS6KB2 (human) (UniProt Q9UBS0)
SYK (human) = SYK (human) (UniProt P43405)
TEK (human) = TEK (human) (UniProt Q02763)
Chain of TEK (human) (Q02763 whole entry, looked up): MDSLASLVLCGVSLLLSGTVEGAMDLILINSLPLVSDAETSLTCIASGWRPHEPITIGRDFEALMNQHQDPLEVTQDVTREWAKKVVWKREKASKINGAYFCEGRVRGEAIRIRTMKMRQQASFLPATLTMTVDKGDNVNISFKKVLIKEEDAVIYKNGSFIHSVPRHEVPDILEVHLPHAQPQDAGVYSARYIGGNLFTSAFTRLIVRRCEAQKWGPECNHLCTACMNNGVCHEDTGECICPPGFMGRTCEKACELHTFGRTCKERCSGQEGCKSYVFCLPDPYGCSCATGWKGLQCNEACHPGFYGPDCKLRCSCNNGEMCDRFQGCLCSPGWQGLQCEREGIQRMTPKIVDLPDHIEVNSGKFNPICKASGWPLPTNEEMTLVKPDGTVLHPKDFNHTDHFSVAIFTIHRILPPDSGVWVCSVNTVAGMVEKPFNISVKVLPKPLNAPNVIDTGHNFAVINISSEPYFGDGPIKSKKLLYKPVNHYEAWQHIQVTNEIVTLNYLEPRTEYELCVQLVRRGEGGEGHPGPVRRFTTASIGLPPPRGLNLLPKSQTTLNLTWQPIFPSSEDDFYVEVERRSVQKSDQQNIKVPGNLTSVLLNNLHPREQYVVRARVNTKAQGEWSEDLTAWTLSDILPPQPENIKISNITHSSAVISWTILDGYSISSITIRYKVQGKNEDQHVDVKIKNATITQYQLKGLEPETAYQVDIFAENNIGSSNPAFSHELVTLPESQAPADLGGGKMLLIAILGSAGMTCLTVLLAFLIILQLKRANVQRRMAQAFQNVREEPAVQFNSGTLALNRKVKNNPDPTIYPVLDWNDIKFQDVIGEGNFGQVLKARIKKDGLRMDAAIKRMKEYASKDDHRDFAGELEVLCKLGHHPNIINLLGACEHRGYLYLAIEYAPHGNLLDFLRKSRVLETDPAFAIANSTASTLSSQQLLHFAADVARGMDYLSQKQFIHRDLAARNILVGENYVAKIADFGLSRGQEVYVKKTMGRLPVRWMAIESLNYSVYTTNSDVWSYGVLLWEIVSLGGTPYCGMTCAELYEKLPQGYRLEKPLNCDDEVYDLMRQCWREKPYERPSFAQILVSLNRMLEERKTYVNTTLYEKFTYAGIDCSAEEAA

Chain of DDR1 (human) (Q08345 whole entry, looked up): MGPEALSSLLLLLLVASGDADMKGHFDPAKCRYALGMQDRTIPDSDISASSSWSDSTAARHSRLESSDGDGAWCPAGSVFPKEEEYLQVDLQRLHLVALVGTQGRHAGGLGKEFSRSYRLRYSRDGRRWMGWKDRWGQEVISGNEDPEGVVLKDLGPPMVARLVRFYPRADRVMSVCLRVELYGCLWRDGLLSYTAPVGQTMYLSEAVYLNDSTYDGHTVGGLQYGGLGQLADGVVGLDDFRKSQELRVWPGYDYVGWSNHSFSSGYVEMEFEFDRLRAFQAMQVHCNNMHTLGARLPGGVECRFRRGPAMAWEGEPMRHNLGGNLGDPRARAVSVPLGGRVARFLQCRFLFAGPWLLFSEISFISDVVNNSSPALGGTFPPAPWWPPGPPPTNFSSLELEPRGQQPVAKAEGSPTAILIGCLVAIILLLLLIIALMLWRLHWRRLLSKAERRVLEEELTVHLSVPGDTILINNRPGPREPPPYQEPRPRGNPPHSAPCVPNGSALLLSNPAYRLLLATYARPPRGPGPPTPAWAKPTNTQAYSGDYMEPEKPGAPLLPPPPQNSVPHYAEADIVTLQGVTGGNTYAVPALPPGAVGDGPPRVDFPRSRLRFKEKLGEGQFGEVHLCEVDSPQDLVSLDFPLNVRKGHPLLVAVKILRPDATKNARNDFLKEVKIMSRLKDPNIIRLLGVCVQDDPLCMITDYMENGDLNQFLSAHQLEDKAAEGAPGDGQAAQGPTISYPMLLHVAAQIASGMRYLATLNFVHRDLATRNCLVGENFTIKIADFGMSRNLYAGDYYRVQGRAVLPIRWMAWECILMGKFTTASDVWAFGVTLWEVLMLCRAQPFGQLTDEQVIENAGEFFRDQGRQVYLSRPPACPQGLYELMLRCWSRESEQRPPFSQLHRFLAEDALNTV
Chain of CLK2 (human) (P49760 whole entry, looked up): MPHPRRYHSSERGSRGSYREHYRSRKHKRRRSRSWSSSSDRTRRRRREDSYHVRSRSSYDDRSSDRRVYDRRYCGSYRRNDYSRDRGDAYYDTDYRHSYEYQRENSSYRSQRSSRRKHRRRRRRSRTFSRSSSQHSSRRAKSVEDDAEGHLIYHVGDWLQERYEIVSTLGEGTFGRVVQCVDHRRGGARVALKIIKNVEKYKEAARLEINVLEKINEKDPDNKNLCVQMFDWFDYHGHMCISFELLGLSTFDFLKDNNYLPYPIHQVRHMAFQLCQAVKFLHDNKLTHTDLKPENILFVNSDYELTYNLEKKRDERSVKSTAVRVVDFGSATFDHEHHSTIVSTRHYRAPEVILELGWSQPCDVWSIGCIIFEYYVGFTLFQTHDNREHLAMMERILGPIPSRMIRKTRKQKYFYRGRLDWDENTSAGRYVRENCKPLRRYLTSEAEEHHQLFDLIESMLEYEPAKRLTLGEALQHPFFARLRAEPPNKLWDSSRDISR
Chain of CSNK1D (human) (P48730 whole entry, looked up): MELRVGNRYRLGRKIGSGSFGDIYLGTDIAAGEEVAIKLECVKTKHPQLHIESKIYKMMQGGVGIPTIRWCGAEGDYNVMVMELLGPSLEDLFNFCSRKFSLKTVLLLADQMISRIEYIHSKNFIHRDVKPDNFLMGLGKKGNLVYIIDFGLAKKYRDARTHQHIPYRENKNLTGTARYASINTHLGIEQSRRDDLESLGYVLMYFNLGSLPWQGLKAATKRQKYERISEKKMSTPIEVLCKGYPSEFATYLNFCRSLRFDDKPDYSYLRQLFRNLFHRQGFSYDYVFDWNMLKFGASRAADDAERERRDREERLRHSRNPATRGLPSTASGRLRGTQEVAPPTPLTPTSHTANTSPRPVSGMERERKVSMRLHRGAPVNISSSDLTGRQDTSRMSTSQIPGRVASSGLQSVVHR
Chain of MAPK9 (human) (P45984 whole entry, looked up): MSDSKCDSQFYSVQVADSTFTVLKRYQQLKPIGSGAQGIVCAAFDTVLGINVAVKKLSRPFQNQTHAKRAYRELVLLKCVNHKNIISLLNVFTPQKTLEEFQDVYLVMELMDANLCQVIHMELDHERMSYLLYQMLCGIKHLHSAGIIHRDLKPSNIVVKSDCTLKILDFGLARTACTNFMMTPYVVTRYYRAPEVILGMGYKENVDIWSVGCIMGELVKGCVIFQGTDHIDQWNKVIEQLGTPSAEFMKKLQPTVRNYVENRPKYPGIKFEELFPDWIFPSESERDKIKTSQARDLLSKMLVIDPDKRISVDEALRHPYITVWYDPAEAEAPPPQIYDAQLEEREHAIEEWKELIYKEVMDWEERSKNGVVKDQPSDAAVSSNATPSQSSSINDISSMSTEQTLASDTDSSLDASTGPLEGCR
Chain of FGFR3 (human) (P22607 whole entry, looked up): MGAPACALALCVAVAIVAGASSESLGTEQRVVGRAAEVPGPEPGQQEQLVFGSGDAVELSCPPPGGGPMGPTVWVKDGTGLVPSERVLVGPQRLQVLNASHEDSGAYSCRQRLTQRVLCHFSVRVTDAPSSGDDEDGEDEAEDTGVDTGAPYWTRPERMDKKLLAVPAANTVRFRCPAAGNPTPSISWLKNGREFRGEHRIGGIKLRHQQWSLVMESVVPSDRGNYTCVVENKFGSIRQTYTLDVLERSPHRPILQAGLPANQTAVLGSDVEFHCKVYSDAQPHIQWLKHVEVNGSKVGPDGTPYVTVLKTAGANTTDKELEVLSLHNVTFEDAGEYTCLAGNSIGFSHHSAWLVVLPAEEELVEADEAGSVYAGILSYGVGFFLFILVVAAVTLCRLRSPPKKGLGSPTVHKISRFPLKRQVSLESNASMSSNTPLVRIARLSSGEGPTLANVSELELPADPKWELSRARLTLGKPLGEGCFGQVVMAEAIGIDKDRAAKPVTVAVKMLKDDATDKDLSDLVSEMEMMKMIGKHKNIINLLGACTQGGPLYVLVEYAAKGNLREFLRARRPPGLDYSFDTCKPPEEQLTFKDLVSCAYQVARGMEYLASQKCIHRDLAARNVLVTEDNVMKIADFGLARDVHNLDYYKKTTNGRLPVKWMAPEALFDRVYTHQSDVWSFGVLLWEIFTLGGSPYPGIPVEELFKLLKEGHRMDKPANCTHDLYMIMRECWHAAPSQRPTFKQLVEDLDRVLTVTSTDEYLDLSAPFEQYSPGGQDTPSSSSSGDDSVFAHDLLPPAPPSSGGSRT
Chain of NUAK2 (human) (Q9H093 whole entry, looked up): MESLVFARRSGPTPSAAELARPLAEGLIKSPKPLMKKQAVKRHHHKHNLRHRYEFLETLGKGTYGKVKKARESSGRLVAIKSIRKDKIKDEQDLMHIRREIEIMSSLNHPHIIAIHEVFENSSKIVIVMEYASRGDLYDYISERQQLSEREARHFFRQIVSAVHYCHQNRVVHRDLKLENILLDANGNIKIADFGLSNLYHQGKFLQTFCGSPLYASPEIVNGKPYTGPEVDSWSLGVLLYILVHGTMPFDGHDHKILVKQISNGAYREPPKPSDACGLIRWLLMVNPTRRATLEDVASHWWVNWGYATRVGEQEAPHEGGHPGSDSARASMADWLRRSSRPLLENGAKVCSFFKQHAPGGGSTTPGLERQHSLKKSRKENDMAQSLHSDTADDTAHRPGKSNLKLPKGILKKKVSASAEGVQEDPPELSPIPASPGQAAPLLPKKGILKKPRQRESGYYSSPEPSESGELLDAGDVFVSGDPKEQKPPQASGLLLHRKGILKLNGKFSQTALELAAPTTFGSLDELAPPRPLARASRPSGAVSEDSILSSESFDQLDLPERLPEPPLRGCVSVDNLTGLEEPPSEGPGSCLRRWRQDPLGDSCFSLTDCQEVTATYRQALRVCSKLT

Structure (SMILES): CNC(=O)c1ccccc1Sc1ccc2c(/C=C/c3ccccn3)n[nH]c2c1
- inhibition (ALK (human); compound 0.001 µM): 2.5%
- inhibition (ALK (human); compound 0.02 µM): 1.4%
- inhibition (ALK EML4 (human); compound 0.001 µM): -2%
- inhibition (ALK EML4 (human); compound 0.02 µM): -3.9%
- inhibition (CAMK1 (human); compound 0.001 µM): -3.4%
- inhibition (CAMK1 (human); compound 0.02 µM): -4.5%
- inhibition (CAMK4 (human); compound 0.001 µM): -4%
- inhibition (CAMK4 (human); compound 0.02 µM): -4.7%
- inhibition (CDC42BPA (human); compound 0.001 µM): 4.2%
- inhibition (CDC42BPA (human); compound 0.02 µM): 10.2%
- inhibition (CLK2 (human); compound 0.001 µM): -3.8%
- inhibition (CLK2 (human); compound 0.02 µM): 5.8%
- inhibition (CLK3 (human); compound 0.001 µM): 10.3%
- inhibition (CLK3 (human); compound 0.02 µM): -5.1%
- inhibition (CSNK1D (human); compound 0.001 µM): -5.3% and -6.3%
- inhibition (CSNK1D (human); compound 0.02 µM): -5.2% and -5.3%
- inhibition (DDR1 (human); compound 0.001 µM): -7%
- inhibition (DDR1 (human); compound 0.02 µM): 1.9%
- inhibition (EEF2K (human); compound 0.001 µM): -4.8%
- inhibition (EEF2K (human); compound 0.02 µM): 2.3%
- inhibition (EPHA4 (human); compound 0.001 µM): -6.8%
- inhibition (EPHA4 (human); compound 0.02 µM): -4.3%
- inhibition (FGFR3 (human); compound 0.001 µM): 8.1%
- inhibition (FGFR3 (human); compound 0.02 µM): 47.4%
- inhibition (MAPK7 (human); compound 0.001 µM): -9.5%
- inhibition (MAPK7 (human); compound 0.02 µM): -9.5%
- inhibition (MAPK9 (human); compound 0.001 µM): -9.7%
- inhibition (MAPK9 (human); compound 0.02 µM): -9.3%
- inhibition (MELK (human); compound 0.001 µM): 1.9%
- inhibition (MELK (human); compound 0.02 µM): 0.9%
- inhibition (MST1R (human); compound 0.001 µM): 0.8%
- inhibition (MST1R (human); compound 0.02 µM): 1.8%
- inhibition (MUSK (human); compound 0.001 µM): -3.1%
- inhibition (MUSK (human); compound 0.02 µM): 4.8%
- inhibition (MYLK2 (human); compound 0.001 µM): -4.8%
- inhibition (MYLK2 (human); compound 0.02 µM): -2.6%
- inhibition (NEK7 (human); compound 0.001 µM): -3.9%
- inhibition (NEK7 (human); compound 0.02 µM): -4.1%
- inhibition (NUAK1 (human); compound 0.001 µM): 10.2%
- inhibition (NUAK1 (human); compound 0.02 µM): -1.9%
- inhibition (NUAK2 (human); compound 0.001 µM): 9.9%
- inhibition (NUAK2 (human); compound 0.02 µM): -0.7%
- inhibition (PAK4 (human); compound 0.001 µM): 3.3%
- inhibition (PAK4 (human); compound 0.02 µM): 0.8%
- inhibition (PASK (human); compound 0.001 µM): -6.3%
- inhibition (PASK (human); compound 0.02 µM): -0.6%
- inhibition (PDK2 (human); compound 0.001 µM): -2.9%
- inhibition (PDK2 (human); compound 0.02 µM): -4.8%
- inhibition (PIM1 (human); compound 0.001 µM): -5.1%
- inhibition (PIM1 (human); compound 0.02 µM): -3.4%
- inhibition (PIM2 (human); compound 0.001 µM): 4.4%
- inhibition (PIM2 (human); compound 0.02 µM): 2.5%
- inhibition (PRKAA1 (human); compound 0.001 µM): 7.1%
- inhibition (PRKAA1 (human); compound 0.02 µM): 10.1%
- inhibition (PRKAA2 (human); compound 0.001 µM): 4.5%
- inhibition (PRKAA2 (human); compound 0.02 µM): 8.8%
- inhibition (PRKACA (human); compound 0.001 µM): -7.9%
- inhibition (PRKACA (human); compound 0.02 µM): -10.1%
- inhibition (RPS6KA5 KD1 KD2 (human); compound 0.001 µM): -6.2%
- inhibition (RPS6KA5 KD1 KD2 (human); compound 0.02 µM): -7.1%
- inhibition (RPS6KB2 (human); compound 0.001 µM): 9.2%
- inhibition (RPS6KB2 (human); compound 0.02 µM): 1.8%
- inhibition (SYK (human); compound 0.001 µM): -9.8%
- inhibition (SYK (human); compound 0.02 µM): -8.9%
- inhibition (TEK (human); compound 0.001 µM): -9%
- inhibition (TEK (human); compound 0.02 µM): -4.9%

Structure (SMILES): CCN(CC)CCNC(=O)c1c(C)[nH]c(/C=C2\C(=O)Nc3ccc(F)cc32)c1C
- inhibition (ALK (human); compound 0.2 µM): 82.2%
- inhibition (ALK (human); compound 4.0 µM): 102%
- inhibition (ALK EML4 (human); compound 0.2 µM): 70.5%
- inhibition (ALK EML4 (human); compound 4.0 µM): 100%
- inhibition (CAMK1 (human); compound 0.2 µM): 7.3%
- inhibition (CAMK1 (human); compound 4.0 µM): 61.2%
- inhibition (CAMK4 (human); compound 0.2 µM): 15.7%
- inhibition (CAMK4 (human); compound 4.0 µM): 80.8%
- inhibition (CDC42BPA (human); compound 0.2 µM): 5.5%
- inhibition (CDC42BPA (human); compound 4.0 µM): -26.5%
- inhibition (CLK2 (human); compound 0.2 µM): 78.3%
- inhibition (CLK2 (human); compound 4.0 µM): 97.2%
- inhibition (CLK3 (human); compound 0.2 µM): 9.2%
- inhibition (CLK3 (human); compound 4.0 µM): 37%
- inhibition (CSNK1D (human); compound 4.0 µM): 86.1% and 97.8%
- inhibition (DDR1 (human); compound 0.2 µM): 71.8%
- inhibition (DDR1 (human); compound 4.0 µM): 96.6%
- inhibition (EEF2K (human); compound 0.2 µM): 2.7%
- inhibition (EEF2K (human); compound 4.0 µM): 4%
- inhibition (EPHA4 (human); compound 0.2 µM): 2.1%
- inhibition (EPHA4 (human); compound 4.0 µM): 40.8%
- inhibition (FGFR3 (human); compound 0.2 µM): 75%
- inhibition (FGFR3 (human); compound 4.0 µM): 98.4%
- inhibition (MAPK7 (human); compound 0.2 µM): -5.7%
- inhibition (MAPK7 (human); compound 4.0 µM): 28.8%
- inhibition (MAPK9 (human); compound 0.2 µM): -8.7%
- inhibition (MAPK9 (human); compound 4.0 µM): -15.7%
- inhibition (MELK (human); compound 0.2 µM): 80%
- inhibition (MELK (human); compound 4.0 µM): 99.2%
- inhibition (MST1R (human); compound 0.2 µM): 6.4%
- inhibition (MST1R (human); compound 4.0 µM): 48.8%
- inhibition (MUSK (human); compound 0.2 µM): 94.8%
- inhibition (MUSK (human); compound 4.0 µM): 101%
- inhibition (MYLK2 (human); compound 0.2 µM): 81.9%
- inhibition (NEK7 (human); compound 0.2 µM): -1.4%
- inhibition (NEK7 (human); compound 4.0 µM): -5.6%
- inhibition (NUAK1 (human); compound 0.2 µM): 95.6%
- inhibition (NUAK1 (human); compound 4.0 µM): 101%
- inhibition (NUAK2 (human); compound 0.2 µM): 55.7%
- inhibition (NUAK2 (human); compound 4.0 µM): 95.3%
- inhibition (PAK4 (human); compound 0.2 µM): 16.2%
- inhibition (PAK4 (human); compound 4.0 µM): 62.8%
- inhibition (PASK (human); compound 0.2 µM): -4%
- inhibition (PASK (human); compound 4.0 µM): 17.8%
- inhibition (PDK2 (human); compound 0.2 µM): -1.2%
- inhibition (PDK2 (human); compound 4.0 µM): 26%
- inhibition (PIM1 (human); compound 0.2 µM): -0.2%
- inhibition (PIM1 (human); compound 4.0 µM): 19.2%
- inhibition (PIM2 (human); compound 0.2 µM): 2.5%
- inhibition (PIM2 (human); compound 4.0 µM): 12.1%
- inhibition (PRKAA1 (human); compound 0.2 µM): 62.6%
- inhibition (PRKAA1 (human); compound 4.0 µM): 98.7%
- inhibition (PRKAA2 (human); compound 0.2 µM): 82.6%
- inhibition (PRKAA2 (human); compound 4.0 µM): 100%
- inhibition (PRKACA (human); compound 0.2 µM): 0.6%
- inhibition (PRKACA (human); compound 4.0 µM): 49%
- inhibition (RPS6KA5 KD1 KD2 (human); compound 0.2 µM): 18.2%
- inhibition (RPS6KA5 KD1 KD2 (human); compound 4.0 µM): 73.3%
- inhibition (RPS6KB2 (human); compound 0.2 µM): 15.7%
- inhibition (RPS6KB2 (human); compound 4.0 µM): 50%
- inhibition (TEK (human); compound 0.2 µM): -3.6%
- inhibition (TEK (human); compound 4.0 µM): 15.3%
